Publication PMC7613998, “Development of selective inhibitors of phosphatidylinositol 3-kinase C2α” (Nature Chemical Biology, 2022)

How the values were obtained:
Assay in all cases: biochemical
JAK1 = JAK1 (Homo sapiens, UniProt P23458); parameters: SelectScreen Z'-LYTE purified kinase panel, per cent inhibition, mean of two points; details: (μM)=Km app
CSNK1D (CK1 delta) = CSNK1D (CK1 delta) (Homo sapiens, UniProt P48730); parameters: SelectScreen Z'-LYTE purified kinase panel, per cent inhibition, mean of two points; details: (μM)=Km app
Sequence of CSNK1D (CK1 delta) (P48730 whole entry): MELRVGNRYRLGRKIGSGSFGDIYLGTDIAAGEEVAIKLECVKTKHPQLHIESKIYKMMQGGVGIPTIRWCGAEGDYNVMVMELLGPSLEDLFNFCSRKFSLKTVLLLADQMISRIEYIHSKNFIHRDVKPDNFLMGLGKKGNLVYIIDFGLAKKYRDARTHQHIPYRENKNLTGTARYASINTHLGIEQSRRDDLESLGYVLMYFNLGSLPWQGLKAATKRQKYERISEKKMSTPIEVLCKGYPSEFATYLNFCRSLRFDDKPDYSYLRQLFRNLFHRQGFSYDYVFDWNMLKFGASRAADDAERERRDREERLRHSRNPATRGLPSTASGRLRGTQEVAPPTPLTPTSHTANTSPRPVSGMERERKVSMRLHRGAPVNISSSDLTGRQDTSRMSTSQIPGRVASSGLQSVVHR

MAPK14 (p38 alpha) = MAPK14 (p38 alpha) (Homo sapiens, UniProt Q16539); parameters: SelectScreen Z'-LYTE purified kinase panel, per cent inhibition, mean of two points; details: (μM)=100
Sequence of MAPK14 (p38 alpha) (Q16539 whole entry): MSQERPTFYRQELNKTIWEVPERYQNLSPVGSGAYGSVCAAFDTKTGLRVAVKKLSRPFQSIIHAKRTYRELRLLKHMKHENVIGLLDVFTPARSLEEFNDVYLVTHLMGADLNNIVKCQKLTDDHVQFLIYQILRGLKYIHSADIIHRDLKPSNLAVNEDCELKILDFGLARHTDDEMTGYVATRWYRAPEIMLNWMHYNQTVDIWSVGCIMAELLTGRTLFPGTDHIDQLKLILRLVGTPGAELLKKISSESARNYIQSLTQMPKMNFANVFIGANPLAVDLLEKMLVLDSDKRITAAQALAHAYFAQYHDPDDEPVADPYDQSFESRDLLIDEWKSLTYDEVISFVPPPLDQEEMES

CSK = CSK (Homo sapiens, UniProt P41240); parameters: SelectScreen Z'-LYTE purified kinase panel, per cent inhibition, mean of two points; details: (μM)=Km app
ERBB4 (HER4) = ERBB4 (HER4) (Homo sapiens, UniProt Q15303); parameters: SelectScreen Z'-LYTE purified kinase panel, per cent inhibition, mean of two points; details: (μM)=Km app
MAPKAPK5 (PRAK) = target: T1, MAPKAPK5 (PRAK) (Homo sapiens, UniProt Q8IW41); parameters: SelectScreen Z'-LYTE purified kinase panel, per cent inhibition, mean of two points; details: (μM)=Km app
T1 sequence (Q8IW41 1-473): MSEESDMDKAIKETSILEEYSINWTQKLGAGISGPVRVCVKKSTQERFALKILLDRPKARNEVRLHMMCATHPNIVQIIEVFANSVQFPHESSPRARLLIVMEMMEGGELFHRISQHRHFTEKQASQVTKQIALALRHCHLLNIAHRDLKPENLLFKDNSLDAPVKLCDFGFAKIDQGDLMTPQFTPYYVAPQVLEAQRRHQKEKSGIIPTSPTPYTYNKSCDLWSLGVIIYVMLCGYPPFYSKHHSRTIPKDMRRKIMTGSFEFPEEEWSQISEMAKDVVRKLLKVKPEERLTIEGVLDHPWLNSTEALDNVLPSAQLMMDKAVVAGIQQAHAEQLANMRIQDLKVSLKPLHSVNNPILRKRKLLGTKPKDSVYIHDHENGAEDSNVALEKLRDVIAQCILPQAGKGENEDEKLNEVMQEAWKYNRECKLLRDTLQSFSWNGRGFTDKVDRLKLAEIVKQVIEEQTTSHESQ

PIM1 = PIM1 (Homo sapiens, UniProt P11309); parameters: SelectScreen Z'-LYTE purified kinase panel, per cent inhibition, mean of two points; details: (μM)=Km app
Sequence of PIM1 (P11309 whole entry): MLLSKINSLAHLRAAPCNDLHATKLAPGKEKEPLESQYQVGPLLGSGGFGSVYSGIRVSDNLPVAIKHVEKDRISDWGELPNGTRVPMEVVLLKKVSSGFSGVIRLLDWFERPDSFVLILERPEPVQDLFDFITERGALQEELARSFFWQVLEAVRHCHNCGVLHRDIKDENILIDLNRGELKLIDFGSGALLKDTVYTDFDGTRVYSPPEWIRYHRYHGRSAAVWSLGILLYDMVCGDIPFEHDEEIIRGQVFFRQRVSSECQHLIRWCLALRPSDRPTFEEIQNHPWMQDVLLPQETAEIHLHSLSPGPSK

KIT V559D T670I = KIT V559D T670I (Homo sapiens, UniProt P10721, T670I/V559D); parameters: SelectScreen LanthaScreen kinase binding assay, per cent tracer displacement, mean of two points; details: tracer displacement
Sequence of KIT V559D T670I (P10721 whole entry V559D/T670I): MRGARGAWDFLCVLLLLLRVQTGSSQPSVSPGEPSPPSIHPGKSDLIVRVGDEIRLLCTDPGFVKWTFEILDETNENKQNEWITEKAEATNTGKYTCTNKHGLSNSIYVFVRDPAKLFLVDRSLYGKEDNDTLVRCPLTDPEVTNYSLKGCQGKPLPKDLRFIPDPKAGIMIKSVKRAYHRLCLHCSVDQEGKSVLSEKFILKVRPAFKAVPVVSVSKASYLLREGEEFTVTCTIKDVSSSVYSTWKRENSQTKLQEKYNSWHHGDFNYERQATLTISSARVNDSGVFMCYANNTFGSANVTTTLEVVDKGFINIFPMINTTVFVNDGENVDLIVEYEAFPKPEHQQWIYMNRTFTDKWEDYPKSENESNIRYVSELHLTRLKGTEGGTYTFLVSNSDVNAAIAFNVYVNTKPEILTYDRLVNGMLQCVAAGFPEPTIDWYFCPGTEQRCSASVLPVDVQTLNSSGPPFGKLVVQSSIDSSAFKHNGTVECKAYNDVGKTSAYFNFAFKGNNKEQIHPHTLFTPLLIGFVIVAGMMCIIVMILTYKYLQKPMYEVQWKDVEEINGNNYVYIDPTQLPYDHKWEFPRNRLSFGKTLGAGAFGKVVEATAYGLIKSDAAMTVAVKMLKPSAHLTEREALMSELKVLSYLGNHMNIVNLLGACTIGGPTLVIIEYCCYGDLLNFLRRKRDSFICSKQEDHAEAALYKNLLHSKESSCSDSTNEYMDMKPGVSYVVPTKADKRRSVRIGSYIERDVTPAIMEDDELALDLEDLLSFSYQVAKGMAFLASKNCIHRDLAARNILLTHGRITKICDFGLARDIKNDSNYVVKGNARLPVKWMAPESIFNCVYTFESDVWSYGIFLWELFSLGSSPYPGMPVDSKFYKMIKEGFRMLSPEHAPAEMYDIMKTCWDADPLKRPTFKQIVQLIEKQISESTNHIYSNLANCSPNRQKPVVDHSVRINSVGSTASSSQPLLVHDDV

CDK16 (PCTK1)/cyclin Y = CDK16 (PCTK1)/cyclin Y (Homo sapiens, UniProt Q00536); parameters: SelectScreen LanthaScreen kinase binding assay, per cent tracer displacement, mean of two points; details: tracer displacement
Sequence of CDK16 (PCTK1)/cyclin Y (Q00536 whole entry): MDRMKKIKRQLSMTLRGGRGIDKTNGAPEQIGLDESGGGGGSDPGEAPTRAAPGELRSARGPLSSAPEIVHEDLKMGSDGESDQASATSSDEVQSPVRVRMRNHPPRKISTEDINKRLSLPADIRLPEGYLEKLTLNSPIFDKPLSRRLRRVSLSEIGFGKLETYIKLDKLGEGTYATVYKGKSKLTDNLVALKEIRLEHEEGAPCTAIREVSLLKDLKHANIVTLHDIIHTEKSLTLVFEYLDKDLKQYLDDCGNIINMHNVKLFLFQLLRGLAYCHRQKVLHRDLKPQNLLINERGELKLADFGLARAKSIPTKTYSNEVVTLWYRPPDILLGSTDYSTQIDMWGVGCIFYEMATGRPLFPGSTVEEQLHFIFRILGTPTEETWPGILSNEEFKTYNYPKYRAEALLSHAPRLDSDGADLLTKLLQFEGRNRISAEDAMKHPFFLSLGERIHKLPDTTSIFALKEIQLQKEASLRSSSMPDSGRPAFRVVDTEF
Sequence of CDK16 (PCTK1)/cyclin Y (Q8ND76 whole entry partner): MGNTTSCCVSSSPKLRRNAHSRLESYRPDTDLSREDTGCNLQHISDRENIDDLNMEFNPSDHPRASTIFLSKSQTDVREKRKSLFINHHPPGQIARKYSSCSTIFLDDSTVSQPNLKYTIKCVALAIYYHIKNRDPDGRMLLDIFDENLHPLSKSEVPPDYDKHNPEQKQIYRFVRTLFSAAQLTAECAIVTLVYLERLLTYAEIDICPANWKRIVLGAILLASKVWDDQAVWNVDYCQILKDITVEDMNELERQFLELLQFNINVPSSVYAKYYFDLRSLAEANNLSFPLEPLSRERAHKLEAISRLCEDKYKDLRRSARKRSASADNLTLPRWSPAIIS

CDK3/cyclin E1 = CDK3/cyclin E1 (Homo sapiens, UniProt Q00526); parameters: SelectScreen LanthaScreen kinase binding assay, per cent tracer displacement, mean of two points; details: tracer displacement
Sequence of CDK3/cyclin E1 (Q00526 whole entry): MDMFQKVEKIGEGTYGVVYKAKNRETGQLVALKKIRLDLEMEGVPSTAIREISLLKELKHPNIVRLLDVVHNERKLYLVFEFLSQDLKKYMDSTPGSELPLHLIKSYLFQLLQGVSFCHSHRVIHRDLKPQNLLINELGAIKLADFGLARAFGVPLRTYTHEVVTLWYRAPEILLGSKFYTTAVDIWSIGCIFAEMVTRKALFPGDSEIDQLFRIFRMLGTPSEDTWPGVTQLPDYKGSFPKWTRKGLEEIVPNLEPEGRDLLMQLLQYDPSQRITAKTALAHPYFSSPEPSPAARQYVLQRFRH
Sequence of CDK3/cyclin E1 (P24864 whole entry partner): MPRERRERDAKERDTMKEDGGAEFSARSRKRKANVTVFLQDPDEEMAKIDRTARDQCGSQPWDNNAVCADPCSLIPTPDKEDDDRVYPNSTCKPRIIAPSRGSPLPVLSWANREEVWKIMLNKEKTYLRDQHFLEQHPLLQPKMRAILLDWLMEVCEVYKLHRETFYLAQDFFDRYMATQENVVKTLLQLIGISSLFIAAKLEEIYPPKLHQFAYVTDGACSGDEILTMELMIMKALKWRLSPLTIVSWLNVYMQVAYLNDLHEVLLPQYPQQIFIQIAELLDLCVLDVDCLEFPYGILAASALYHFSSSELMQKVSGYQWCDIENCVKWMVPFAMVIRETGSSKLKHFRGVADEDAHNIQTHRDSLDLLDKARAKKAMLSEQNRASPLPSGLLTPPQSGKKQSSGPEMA

KIT D816V = KIT D816V (Homo sapiens, UniProt P10721, D816V); parameters: SelectScreen LanthaScreen kinase binding assay, per cent tracer displacement, mean of two points; details: tracer displacement
Sequence of KIT D816V (P10721 whole entry D816V): as the sequence (P10721 whole entry V559D/T670I) above, with D559V, I670T, D816V counted along it

CDK2/cyclin O = CDK2/cyclin O (Homo sapiens, UniProt P24941); parameters: SelectScreen LanthaScreen kinase binding assay, per cent tracer displacement, mean of two points; details: tracer displacement

Sequence of JAK1 (P23458 whole entry): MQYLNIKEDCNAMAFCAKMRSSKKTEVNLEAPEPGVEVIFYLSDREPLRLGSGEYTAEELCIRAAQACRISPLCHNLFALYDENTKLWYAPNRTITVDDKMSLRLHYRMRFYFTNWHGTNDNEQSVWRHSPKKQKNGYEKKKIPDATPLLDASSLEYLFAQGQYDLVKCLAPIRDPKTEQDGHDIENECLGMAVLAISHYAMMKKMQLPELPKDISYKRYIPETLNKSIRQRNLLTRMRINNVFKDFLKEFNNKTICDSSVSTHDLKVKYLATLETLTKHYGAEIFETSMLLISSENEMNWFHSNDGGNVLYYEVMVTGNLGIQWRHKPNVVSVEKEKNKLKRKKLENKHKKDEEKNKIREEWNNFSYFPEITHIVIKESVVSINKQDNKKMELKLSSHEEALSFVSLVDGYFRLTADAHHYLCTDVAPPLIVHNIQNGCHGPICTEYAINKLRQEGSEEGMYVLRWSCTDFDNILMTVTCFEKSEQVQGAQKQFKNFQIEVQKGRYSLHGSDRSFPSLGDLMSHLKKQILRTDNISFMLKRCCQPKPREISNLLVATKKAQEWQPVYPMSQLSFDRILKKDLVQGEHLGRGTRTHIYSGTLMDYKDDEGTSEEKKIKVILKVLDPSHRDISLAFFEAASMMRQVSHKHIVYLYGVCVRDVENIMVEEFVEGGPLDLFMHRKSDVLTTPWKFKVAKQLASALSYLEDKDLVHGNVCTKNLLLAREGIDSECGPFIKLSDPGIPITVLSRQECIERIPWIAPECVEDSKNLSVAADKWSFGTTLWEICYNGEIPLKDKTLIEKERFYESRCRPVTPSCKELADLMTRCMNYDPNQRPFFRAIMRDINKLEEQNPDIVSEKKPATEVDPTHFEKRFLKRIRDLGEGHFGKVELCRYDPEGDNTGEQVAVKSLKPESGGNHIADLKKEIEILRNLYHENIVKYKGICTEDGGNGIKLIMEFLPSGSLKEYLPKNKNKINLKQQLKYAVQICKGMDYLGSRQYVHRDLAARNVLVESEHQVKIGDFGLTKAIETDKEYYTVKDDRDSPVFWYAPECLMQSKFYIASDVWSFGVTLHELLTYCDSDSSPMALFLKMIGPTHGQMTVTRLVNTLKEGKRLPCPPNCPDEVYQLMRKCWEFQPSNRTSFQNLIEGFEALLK

Row | inhibition at 1 µM (JAK1) [%] | inhibition at 3 µM (JAK1) [%] | inhibition at 10 µM (JAK1) [%] | inhibition at 1 µM (CSNK1D (CK1 delta)) [%] | inhibition at 3 µM (CSNK1D (CK1 delta)) [%] | inhibition at 10 µM (CSNK1D (CK1 delta)) [%] | inhibition at 1 µM (MAPK14 (p38 alpha)) [%] | inhibition at 3 µM (MAPK14 (p38 alpha)) [%] | inhibition at 10 µM (MAPK14 (p38 alpha)) [%] | inhibition at 1 µM (CSK) [%] | inhibition at 3 µM (CSK) [%] | inhibition at 10 µM (CSK) [%] | inhibition at 1 µM (ERBB4 (HER4)) [%] | inhibition at 3 µM (ERBB4 (HER4)) [%] | inhibition at 10 µM (ERBB4 (HER4)) [%] | inhibition at 1 µM (MAPKAPK5 (PRAK)) [%] | inhibition at 3 µM (MAPKAPK5 (PRAK)) [%] | inhibition at 10 µM (MAPKAPK5 (PRAK)) [%] | inhibition at 1 µM (PIM1) [%] | inhibition at 3 µM (PIM1) [%] | Structure (SMILES) | other results
1 | 6.58 | 2.72 | 0.0941 | 4.82 | 3.36 | 10 | -3.25 | -1.99 | -0.632 | 3.79 | 4.7 | 4.31 | -3.45 | -1.62 | 0.146 | -1.38 | 1.26 | 0.194 | 8.8 | 5.6 | O=C(CSc1nc2nccnc2c(=O)n1CCc1ccccc1)Nc1nccs1 [compound 1, PITCOIN1] | inhibition at 10 µM (PIM1): -0.465%; inhibition at 1 µM (KIT V559D T670I): -4.48%; inhibition at 3 µM (KIT V559D T670I): 0.47%; inhibition at 10 µM (KIT V559D T670I): 6.38%; inhibition at 1 µM (CDK16 (PCTK1)/cyclin Y): -6.54%; inhibition at 3 µM (CDK16 (PCTK1)/cyclin Y): -14.5%; inhibition at 10 µM (CDK16 (PCTK1)/cyclin Y): -1.48%; inhibition at 1 µM (CDK3/cyclin E1): -0.974%; inhibition at 3 µM (CDK3/cyclin E1): -9.41%; inhibition at 10 µM (CDK3/cyclin E1): 1.77%; inhibition at 1 µM (KIT D816V): -3.29%; inhibition at 3 µM (KIT D816V): 2.7%; inhibition at 10 µM (KIT D816V): -1.13%; inhibition at 1 µM (CDK2/cyclin O): 17.6%; inhibition at 3 µM (CDK2/cyclin O): -4.45%; inhibition at 10 µM (CDK2/cyclin O): 7.96%
2 | 2.76 | 4.25 | 0.516 | 5.88 | 7.07 | 7.02 | 1.55 | 6.76 | 2.67 | 9.48 | 7.4 | 6.13 | -2.57 | -5.3 | -3.59 | -3.78 | 2.14 | -2.49 | -8.14 | 9.01 | CS(=O)(=O)Nc1cccc(-c2csc(NC(=O)CSc3nc4nccnc4c(=O)n3CCc3ccccc3)n2)c1 [compound 3, PITCOIN3] | inhibition at 10 µM (PIM1): 5.45%; inhibition at 1 µM (KIT V559D T670I): -12.1%; inhibition at 3 µM (KIT V559D T670I): 0.144%; inhibition at 10 µM (KIT V559D T670I): 1.37%; inhibition at 1 µM (CDK16 (PCTK1)/cyclin Y): 3.53%; inhibition at 3 µM (CDK16 (PCTK1)/cyclin Y): -5.28%; inhibition at 10 µM (CDK16 (PCTK1)/cyclin Y): -6.76%; inhibition at 1 µM (CDK3/cyclin E1): 13.1%; inhibition at 3 µM (CDK3/cyclin E1): 8.71%; inhibition at 10 µM (CDK3/cyclin E1): -18.8%; inhibition at 1 µM (KIT D816V): 6.33%; inhibition at 3 µM (KIT D816V): 6.29%; inhibition at 10 µM (KIT D816V): 5.56%; inhibition at 1 µM (CDK2/cyclin O): 18.1%; inhibition at 3 µM (CDK2/cyclin O): 11.6%; inhibition at 10 µM (CDK2/cyclin O): 2.75%
